Several values for one entry are separate records, joined by “and”; a condition that tells them apart may be missing. Equal entries are not always repeated.
System: HOP-62 complex spheroids with HUVEC/MSC, viability
Test: Anticancer human tumor HOP-62 cell line growth inhibition [RAS];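 further: spheroids exposed to agents for seven days before readout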;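 on viability, T/C: 100% = DMSO vehicle control viability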
Settings: for viability, T/C: stronger effect = lower value
How it was run: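 Tumour cells grown as complex spheroids with HUVEC endothelial cells and mesenchymal stem cells, treated with RAS pathway inhibitor combinations. Each agent spans half-log steps from near clinical Cmax, or 10 microM where Cmax is unknown.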

[1] = curve of first compound, second compound 0.0316 µM
[2] = curve of first compound, second compound 0.1 µM
[3] = curve of first compound, second compound 0.316 µM
[4] = curve of first compound, second compound 1 µM
[5] = curve of first compound, second compound 3.16 µM
[6] = curve of first compound, second compound 10 µM
[7] = second compound 0.0316 µM, first compound 0.0316 µM
[8] = second compound 0.0316 µM, first compound 0.1 µM
[9] = second compound 0.0316 µM, first compound 0.316 µM
[10] = second compound 0.0316 µM, first compound 1 µM
[11] = second compound 0.1 µM, first compound 0.0316 µM
[12] = second compound 0.1 µM, first compound 0.1 µM
[13] = second compound 0.1 µM, first compound 0.316 µM
[14] = second compound 0.1 µM, first compound 1 µM
[15] = second compound 0.316 µM, first compound 0.0316 µM
[16] = second compound 0.316 µM, first compound 0.1 µM
[17] = second compound 0.316 µM, first compound 0.316 µM
[18] = second compound 0.316 µM, first compound 1 µM
[19] = second compound 1 µM, first compound 0.0316 µM
[20] = second compound 1 µM, first compound 0.1 µM
[21] = second compound 1 µM, first compound 0.316 µM
[22] = second compound 1 µM, first compound 1 µM
[23] = second compound 3.16 µM, first compound 0.0316 µM
[24] = second compound 3.16 µM, first compound 0.1 µM
[25] = second compound 3.16 µM, first compound 0.316 µM
[26] = second compound 3.16 µM, first compound 1 µM
[27] = second compound 10 µM, first compound 0.0316 µM
[28] = second compound 10 µM, first compound 0.1 µM
[29] = second compound 10 µM, first compound 0.316 µM
[30] = second compound 10 µM, first compound 1 µM

C=CC(=O)N1CCN(c2nc(OCC3CCCN3C)nc3c(F)c(-c4nc(N)cc(C)c4C(F)(F)F)c(Cl)cc23)C(C)C1 (stereo unspecified) + C#Cc1c(F)ccc2cc(O)cc(-c3ncc4c(N5CC6CCC(C5)N6)nc(OCC56CCCN5CC(F)C6)nc4c3F)c12
IC50 [1]: > 1 µM
IC50 [2]: > 1 µM
IC50 [3]: > 1 µM
IC50 [4]: > 1 µM
IC50 [5]: > 1 µM
IC50 [6]: < 0.00316 µM
viability, T/C (second compound 0.0316 µM, first compound 0.00316 µM): 79.5%
viability, T/C (second compound 0.0316 µM, first compound 0.01 µM): 71.2%
viability, T/C [7]: 65.5%
viability, T/C [8]: 68.2%
viability, T/C [9]: 70.6%
viability, T/C [10]: 62.1%
viability, T/C (second compound 0.1 µM, first compound 0.00316 µM): 86.7%
viability, T/C (second compound 0.1 µM, first compound 0.01 µM): 69.3%
viability, T/C [11]: 63.2%
viability, T/C [12]: 64.7%
viability, T/C [13]: 69.1%
viability, T/C [14]: 63%
viability, T/C (second compound 0.316 µM, first compound 0.00316 µM): 81.7%
viability, T/C (second compound 0.316 µM, first compound 0.01 µM): 68.9%
viability, T/C [15]: 62.9%
viability, T/C [16]: 58.5%
viability, T/C [17]: 61.1%
viability, T/C [18]: 61.8%
viability, T/C (second compound 1 µM, first compound 0.00316 µM): 90%
viability, T/C (second compound 1 µM, first compound 0.01 µM): 73.5%
viability, T/C [19]: 63.1%
viability, T/C [20]: 57.9%
viability, T/C [21]: 59.2%
viability, T/C [22]: 58.4%
viability, T/C (second compound 3.16 µM, first compound 0.00316 µM): 72.7%
viability, T/C (second compound 3.16 µM, first compound 0.01 µM): 70.1%
viability, T/C [23]: 57.4%
viability, T/C [24]: 61.1%
viability, T/C [25]: 53.9%
viability, T/C [26]: 50%
viability, T/C (second compound 10 µM, first compound 0.00316 µM): 48%
viability, T/C (second compound 10 µM, first compound 0.01 µM): 49.5%
viability, T/C [27]: 43.4%
viability, T/C [28]: 48.4%
viability, T/C [29]: 43.7%
viability, T/C [30]: 37%

CC(Nc1ccc2c(c1)OCCn1cc(N3C(=O)OCC3C(F)F)nc1-2)C(N)=O (stereo unspecified) + C#Cc1c(F)ccc2cc(O)cc(-c3ncc4c(N5CC6CCC(C5)N6)nc(OCC56CCCN5CC(F)C6)nc4c3F)c12
IC50 [1]: 1.33 µM
IC50 [2]: 1.61 µM
IC50 [3]: 1.02 µM
IC50 [4]: 0.751 µM
IC50 [5]: 0.0964 µM
IC50 [6]: < 0.0316 µM
viability, T/C [7]: 80.5%
viability, T/C [8]: 69.2%
viability, T/C [9]: 54.6%
viability, T/C [10]: 59.8%
viability, T/C (second compound 0.0316 µM, first compound 3.16 µM): 42.8%
viability, T/C (second compound 0.0316 µM, first compound 10 µM): 32.9%
viability, T/C [11]: 85.6%
viability, T/C [12]: 78.5%
viability, T/C [13]: 57%
viability, T/C [14]: 58.4%
viability, T/C (second compound 0.1 µM, first compound 3.16 µM): 45.9%
viability, T/C (second compound 0.1 µM, first compound 10 µM): 32.8%
viability, T/C [15]: 86.9%
viability, T/C [16]: 68.9%
viability, T/C [17]: 59.6%
viability, T/C [18]: 52.9%
viability, T/C (second compound 0.316 µM, first compound 3.16 µM): 41.3%
viability, T/C (second compound 0.316 µM, first compound 10 µM): 31.4%
viability, T/C [19]: 78.5%
viability, T/C [20]: 67.4%
viability, T/C [21]: 53.5%
viability, T/C [22]: 50.6%
viability, T/C (second compound 1 µM, first compound 3.16 µM): 39.2%
viability, T/C (second compound 1 µM, first compound 10 µM): 28.4%
viability, T/C [23]: 67.8%
viability, T/C [24]: 41.7%
viability, T/C [25]: 40%
viability, T/C [26]: 32.3%
viability, T/C (second compound 3.16 µM, first compound 3.16 µM): 22.3%
viability, T/C (second compound 3.16 µM, first compound 10 µM): 15.1%
viability, T/C [27]: 31.3%
viability, T/C [28]: 22.8%
viability, T/C [29]: 19.2%
viability, T/C [30]: 17.3%
viability, T/C (second compound 10 µM, first compound 3.16 µM): 12.6%
viability, T/C (second compound 10 µM, first compound 10 µM): 10.2%

CC(Nc1ccc2c(c1)OCCn1cc(N3C(=O)OCC3C(F)F)nc1-2)C(N)=O (stereo unspecified)
viability, T/C (compound 10 µM): 36.1% (2×) and 49.9% and 54.1%
IC50 (curve of compound): 2.31 µM and > 10 µM and 1.99 µM

From PubChem BioAssay AID2060892 (Molecular Pharmacology Branch, DTP, NCI, 2025)
